Values quoted from earlier work, collected in US20080287418A1, “Extended Release Compositions and Methods for Their Manufacture” (ASTRAZENECA AB, priority 2007, published 2008).

Solubility in acid (acid): soluble in acid
Solubility in water (water): slightly soluble in water
SMILES: OCCOCCN1CCN(C2=Nc3ccccc3Sc3ccccc32)CC1 [quetiapine, 11-[4-[2-(2-hydroxyethoxy)ethyl]-1-piperazinyl]dibenzo[b,f][1,4]thiazepine]
